Measured values published in patent US20230192700A1, “PYRAZOLOPYRAZINES ACTING ON CANCERS VIA INHIBITION OF CDK12” (Bayer Aktiengesellschaft, priority 2020, published 2023).
Where two headings read alike, the source gives them in different places.

Columns and labels:
[1] = test system: BRCA1 mRNA expression in MDA-MB-231 cells; assay: qRT-PCR assay: inhibition of BRCA1 mRNA expression in MDA-MB-231 cells; assay type: cell-based, human; conditions: 24 h exposure, BRCA1 mRNA normalised to GAPDH, median, read-out: RTqPCR-MDA-MB-231 IC50 [mol/l] BRCA1 (median)
Experimental: 3. qRT-PCR Assay: BRCA1, ATR, MCL1 in MDA-MB-231, CAL-120
Tissue cultured human MDA-MB-231 human breast cancer cells were plated in 500 microL per well at 200,000 cells/well in a 24 well microtiter plate. After 24 h, the cells were exposed continuously for 24 h to test substances (substances were added with Tecan HP D300 Dispenser). RNA was prepared using Qiagen RNeasy MiniKit (#74106), RNA was quantified using a NanoDrop Equipment, and 600 nano gamms of RNA was coverted to cDNA using a SuperScript VILO kit (Thermofisher #11755050) followed by qPCR amplification. BRCA1 and ATR gene expression was measured by RT-qPCR and normalised to GAPDH housekeeping gene expression. qPCR primer sets have been purchased from Thermo Fisher Scientific/Applied Biosystems: BRCA1, # Hs 01556193; ATR, #Hs 00992123; GAPDH, #Hs 03929097.

CDK2/CyclinE = molecular target: T1, CDK2/CyclinE (Homo sapiens, UniProt P24941); assay: CDK2/CycE kinase assay (TR-FRET); assay type: biochemical; conditions: 2 mM ATP (high ATP); median; read-out: CDK2/CyclinE, 2 mM ATP (high ATP) IC50 - [mol/l] (median)
T1 construct: GST; purchased ProQinase GmbH (Freiburg, Germany); host or cells: insect cells (Sf9)
Description: 2.4 CDK2/CycE Kinase Assay
CDK2/CycE-inhibitory activity of compounds of the present invention was quantified employing the CDK2/CycE TR-FRET assay as described in the following paragraphs.
Recombinant fusion proteins of GST and human CDK2 and of GST and human CycE, expressed in insect cells (Sf9) and purified by Glutathion-Sepharose affinity chromatography, were purchased from ProQinase GmbH (Freiburg, Germany). As substrate for the kinase reaction biotinylated peptide biotin-Ttds-YISPLKSPYKISEG (C-terminus in amid form) was used which can be purchased e.g. form the company JERINI peptide technologies (Berlin, Germany).
For the assay 50 nanoL of a 100 fold concentrated solution of the test compound in DMSO was pipetted into a black low volume 384 well microtiter plate or a black 1536 well microtiter plate (both Greiner Bio-One, Frickenhausen, Germany), 2 microL of a solution of CDK2/CycE in aqueous assay buffer [50 millimol/L Tris/HCl pH 8.0, 10 millimol/L MgCl2, 1.0 millimol/L dithiothreitol, 0.1 millimol/L sodium ortho-vanadate, 0.01% (v/v) Nonidet-P40 (Sigma)] were added and the mixture was incubated for 15 min at 22° C. to allow pre-binding of the test compounds to the enzyme before the start of the kinase reaction. Then the kinase reaction was started by the addition of 3 microL of a solution of adenosine-tri-phosphate (ATP, 3.33 millimol/L=>final conc. in the 5 microL assay volume is 2 millimol/L) and substrate (1.25 micromol/L=>final conc. in the 5 microL assay volume is 0.75 micromol/L) in assay buffer and the resulting mixture was incubated for a reaction time of 25 min at 22° C. The concentration of CDK2/CycE was adjusted depending of the activity of the enzyme lot and was chosen appropriate to have the assay in the linear range, typical concentrations were in the range of 10 ng/mL. The reaction was stopped by the addition of 3 microL of a solution of TR-FRET detection reagents (0.333 micromol/L streptavidine-XL665 [Cisbio Bioassays, Codolet, France] and 1.67 nanomol/L anti-RB(pSer807/pSer811)-antibody from BD Pharmingen [#558389] and 2 nanomol/L LANCE EU-W1024 labeled anti-mouse IgG antibody [Perkin-Elmer, product no. AD0077, as an alternative a Terbium-cryptate-labeled anti-mouse IgG antibody from Cisbio Bioassays can be used]) in an aqueous EDTA-solution (167 millimol/L EDTA, 0.2% (w/v) bovine serum albumin in 100 millimol/L HEPES pH 7.5).
The resulting mixture was incubated 1 h at 22° C. to allow the formation of complex between the phosphorylated biotinylated peptide and the detection reagents. Subsequently the amount of phosphorylated substrate was evaluated by measurement of the resonance energy transfer from the Eu-chelate to the streptavidine-XL. Therefore, the fluorescence emissions at 620 nm and 665 nm after excitation at 350 nm was measured in a TR-FRET reader, e.g. a Pherastar (BMG Labtechnologies, Offenburg, Germany) or a Viewlux (Perkin-Elmer). The ratio of the emissions at 665 nm and at […] was taken as the measure for the amount of phosphorylated substrate. The data were normalised (enzyme reaction without inhibitor=0% inhibition, all other assay components but no enzyme=100% inhibition).

Row | Compound | IC50 ([1]; Homo sapiens, MDA-MB-231, 24 h) [µM] | IC50 (CDK2/CyclinE) [µM] | IC50 [1] [µM]
1 | O[C@H]1C[C@@H](Cn2nc(NCc3nc4ccccc4[nH]3)c3ncc(C4CC4)nc32)C1 [Example 71, cis-3-[(3-{[(1H-benzimidazol-2-yl)methyl]amino}-6-cyclopropyl-1H-pyrazolo[3,4-b]pyrazin-1-yl)methyl]cyclobutan-1-ol] | 0.00301 | > 20 | –
2 | COCCC(C)n1nc(NCc2nc3ccccc3[nH]2)c2ncc(C3CC3)nc21 (single isomer, unassigned; (+)) [Example 59, (+)-N-[(1H-benzimidazol-2-yl)methyl]-6-cyclopropyl-1-[4-methoxybutan-2-yl]-1H-pyrazolo[3,4-b]pyrazin-3-amine] | – | > 20 | 0.248
3 | CN1CCCC(n2nc(NCc3nc4ccccc4[nH]3)c3ncc(C4CC4)nc32)CC1 (racemic) [Example 34, (±)-N-[(1H-benzimidazol-2-yl)methyl]-6-cyclopropyl-1-(1-methylazepan-4-yl)-1H-pyrazolo[3,4-b]pyrazin-3-amine] | 0.0225 | > 20 | –
4 | c1ccc2[nH]c(CNc3nn(C4C[C@H]5CC[C@@H](C4)O5)c4nc(C5CC5)cnc34)nc2c1 (stereo partly drawn) [Example 45, exo/endo-N-[(1H-benzimidazol-2-yl)methyl]-6-cyclopropyl-1-(8-oxabicyclo[3.2.1]octan-3-yl)-1H-pyrazolo[3,4-b]pyrazin-3-amine] | 0.0076 | > 18.2 | –
5 | CN1CCC(n2nc(NCc3nc4c(Br)cccc4[nH]3)c3ncc(C4CC4)nc32)CC1 [Example 20, N-[(4-bromo-1H-benzimidazol-2-yl)methyl]-6-cyclopropyl-1-(1-methylpiperidin-4-yl)-1H-pyrazolo[3,4-b]pyrazin-3-amine] | 0.0206 | > 20 | –
6 | Fc1ccc2[nH]c(CNc3nn(C4CCOCC4)c4nc(C5CC5)cnc34)nc2c1F [Example 32, 6-cyclopropyl-N-[(4,5-difluoro-1H-benzimidazol-2-yl)methyl]-1-(oxan-4-yl)-1H-pyrazolo[3,4-b]pyrazin-3-amine] | 0.029 | > 20 | –
7 | c1ccc2[nH]c(CNc3nn(C4CCNCC4)c4nc(C5CC5)cnc34)nc2c1 [Example 12, N-[(1H-benzimidazol-2-yl)methyl]-6-cyclopropyl-1-(piperidin-4-yl)-1H-pyrazolo[3,4-b]pyrazin-3-amine] | – | > 20 | –
8 | Cc1cnc2c(NCc3nc4ccccc4[nH]3)nn(C3CCN(C)CC3)c2n1 [Example 77, N-[(1H-benzimidazol-2-yl)methyl]-6-methyl-1-(1-methylpiperidin-4-yl)-1H-pyrazolo[3,4-b]pyrazin-3-amine] | – | > 20 | –
9 | CN(C)CCn1nc(NCc2nc3ccccc3[nH]2)c2ncc(C3CC3)nc21 [Example 68, N-[(1H-benzimidazol-2-yl)methyl]-6-cyclopropyl-1-[2-(dimethylamino)ethyl]-1H-pyrazolo[3,4-b]pyrazin-3-amine] | – | > 20 | –
10 | CN1CCC(n2nc(NCc3nc4cc(SC(F)(F)F)ccc4[nH]3)c3ncc(C4CC4)nc32)CC1 [Example 27, 6-cyclopropyl-1-(1-methylpiperidin-4-yl)-N-({5-[(trifluoromethyl)sulfanyl]-1H-benzimidazol-2-yl}methyl)-1H-pyrazolo[3,4-b]pyrazin-3-amine] | – | > 20 | –
11 | OC1(Cn2nc(NCc3nc4ccccc4[nH]3)c3ncc(C4CC4)nc32)CCC1 [Example 72, 1-[(3-{[(1H-benzimidazol-2-yl)methyl]amino}-6-cyclopropyl-1H-pyrazolo[3,4-b]pyrazin-1-yl)methyl]cyclobutan-1-ol] | – | > 20 | –
12 | COCCCn1nc(NCc2nc3ccccc3[nH]2)c2ncc(C3CC3)nc21 [Example 61, N-[(1H-benzimidazol-2-yl)methyl]-6-cyclopropyl-1-(3-methoxypropyl)-1H-pyrazolo[3,4-b]pyrazin-3-amine] | – | > 20 | –
13 | OCCn1nc(NCc2nc3ccccc3[nH]2)c2ncc(C3CC3)nc21 [Example 66, 2-(3-{[(1H-benzimidazol-2-yl)methyl]amino}-6-cyclopropyl-1H-pyrazolo[3,4-b]pyrazin-1-yl)ethan-1-ol] | – | > 20 | –
